Values joined by “and” are separate entries in the source; they are usually repeats but may differ in a detail not shown here. Equal values may be shown once.

The target in the assay is T1, particulate guanylyl cyclase receptor A (pGC-A) (Homo sapiens, UniProt P16066).
T1 construct: expressed in transfected cells; host or cells: HEK293
T1 sequence (P16066 33-1061): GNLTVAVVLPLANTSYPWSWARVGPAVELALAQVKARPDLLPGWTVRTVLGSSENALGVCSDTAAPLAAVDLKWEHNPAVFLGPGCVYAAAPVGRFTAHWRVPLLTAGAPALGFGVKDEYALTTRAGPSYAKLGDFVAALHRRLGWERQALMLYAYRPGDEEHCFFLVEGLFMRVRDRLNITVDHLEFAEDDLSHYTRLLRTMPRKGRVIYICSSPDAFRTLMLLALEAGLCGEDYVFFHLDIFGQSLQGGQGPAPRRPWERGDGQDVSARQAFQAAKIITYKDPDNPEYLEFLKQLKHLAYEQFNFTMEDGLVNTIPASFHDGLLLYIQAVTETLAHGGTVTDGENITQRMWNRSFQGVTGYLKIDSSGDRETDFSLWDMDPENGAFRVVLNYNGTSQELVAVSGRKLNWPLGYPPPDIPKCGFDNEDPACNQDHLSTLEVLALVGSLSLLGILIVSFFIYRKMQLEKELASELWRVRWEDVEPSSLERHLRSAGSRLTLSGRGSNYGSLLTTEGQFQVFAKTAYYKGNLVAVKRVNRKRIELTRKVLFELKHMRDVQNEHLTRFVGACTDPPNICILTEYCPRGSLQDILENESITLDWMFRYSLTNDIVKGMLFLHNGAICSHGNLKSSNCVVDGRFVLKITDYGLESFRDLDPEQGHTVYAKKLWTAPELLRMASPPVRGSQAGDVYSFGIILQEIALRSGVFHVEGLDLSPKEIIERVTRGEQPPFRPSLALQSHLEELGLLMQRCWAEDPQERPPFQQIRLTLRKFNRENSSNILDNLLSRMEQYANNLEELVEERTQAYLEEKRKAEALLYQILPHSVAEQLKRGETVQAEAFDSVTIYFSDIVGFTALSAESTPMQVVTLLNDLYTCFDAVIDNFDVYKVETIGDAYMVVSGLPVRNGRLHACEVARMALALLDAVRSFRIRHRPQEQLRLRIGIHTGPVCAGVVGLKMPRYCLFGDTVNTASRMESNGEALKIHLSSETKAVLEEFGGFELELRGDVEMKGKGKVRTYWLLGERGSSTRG
T1 sequence (P01160 124-151 partner limits assumed): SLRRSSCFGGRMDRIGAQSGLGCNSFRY
As to the kind of experiment: cGMP production by HTRF in HEK293 cells overexpressing pGC-A, with ANP. Type of assay: cell-based. Particulars: for Max efficacy / EC50: HEK293 cells overexpressing pGC-A; for Max efficacy / Emax: cGMP normalized to maximal amount produced by an EC80 concentration of ANP; for EC50: test compound plus EC20 concentration of ANP, cGMP by HTRF; for Emax: HEK293, HEK293 cells overexpressing pGC-A, read-out: Max efficacy. The text has this: Assay: Generally, the assay monitors the production of cGMP, the second messenger generated by pGC-A, by Time-Resolved Florescence (HTRF) in HEK293 cells overexpressing the pGC-A. pGC-A suspension cells were stimulated in the presence of the test compound and an EC20 concentration of ANP. The quantity of cGMP was detected by competitive immunoassay using Eu^3+ cryptate-labeled anti-cGMP and d2-labeled cGMP and normalized to maximal amount produced by an EC80 concentration of ANP. Compound EC50 values were determined in the primary assay, in the presence or absence of ANP, to determine mode of action as positive modulators and tested for selectivity in the same assay platform but in HEK cells overexpressing the particulate guanylyl cyclase B receptor (pGC-B), of which CNP is the endogenous ligand.
Assay details: 20 nL of 10 μM test compound in DMSO was added to columns 5-48 of 1536 well white high base screening plates (Corning, New York, NY) cells using 550 ECHO acoustic dispenser (Labcyte, San Jose, CA). Alpha-atrial natriuretic peptide (ANP) (Phoenix Pharmaceutics) was prepared as stock aliquots at 5 μM in PBS with 0.1% BSA. An approximate […] concentration of ANP ([…]) in assay buffer (HBSS containing 5 mM HEPES and 0.05% BSA) was added to columns 3-48 at a volume of 1 μL. Assay buffer only was added to column 1 and assay buffer containing a saturating concentration of ANP (5 nM) was added to column 2. HEK293 cells overexpressing GC-A were resuspended in assay media (OptimMem media containing 2% Heat-inactivated Fetal bovine serum and L-glutamine) at a density of 6×10^5 cells/mL and 2 μL were plated in screening plates (1200 cells/well) in suspension using a Bioraptr 2. Plates were spun at 1000 rpm for 1 min and incubated for 30 min at room temperature. 1.5 μL d2-labeled cGMP followed by 1.5 μL Eu^3+ cryptate-labeled anti-cGMP cGMP detection kit (CiBio; #62GM2PEC) prepared according to manufacturer's protocol were added to all wells using a Bioraptr 2 and TR-FRET signal was detected on an EnVision detector (PerkinElmer). Wells treated with 0.3% DMSO only serve as blank controls (column 1); wells treated with 0.3% DMSO and 5 nM ANP (columns 2) serve as positive controls and wells treated with 0.3% DMSO and […] ANP (columns 3-4) serve as negative controls.

On to `CN1CCC(N2CCCC(C(=O)Nc3nc4c(F)cc(F)cc4s3)C2)C1` (stereo not shown) [compound 069], for which the Max efficacy was 89-98% and the EC50 lay in the range of 30 to 200 nM.

Take `CN1CCCC(N2CCCC(C(=O)Nc3nc4c(F)cc(F)cc4s3)C2)C1` (stereo not shown) [compound 070]: the Max efficacy is 71% and 85%.

`CN1CCC(N2CCCC(C(=O)Nc3nc4c(F)cc(F)cc4s3)C2)CC1` (stereo not shown) [compound 071]: the Emax came to 93% and the EC50 is 200 nM.

As to `CN1CCCC1CN1CCCC(C(=O)Nc2nc3c(F)cc(F)cc3s2)C1` (stereo not shown) [compound 072], the Max efficacy is 118% and 94%; the EC50 is 1200 nM and 1000 nM.

Take `CN1CCCCC1CN1CCCC(C(=O)Nc2nc3c(F)cc(F)cc3s2)C1` (stereo not shown) [compound 073]: the Emax came to 94% and the EC50 was found to be 400 nM.

As for `CN1CCCC(CN2CCCC(C(=O)Nc3nc4c(F)cc(F)cc4s3)C2)C1` (stereo not shown) [compound 074], the Emax came to 80% and the EC50 was found to be 1100 nM.

With `CN1CCC(CN2CCCC(C(=O)Nc3nc4c(F)cc(F)cc4s3)C2)CC1` (stereo not shown) [compound 075], the Emax was 92% and the EC50 turned out to be 1500 nM.

Turning to `Cn1cc(N2CCCC(C(=O)Nc3nc4c(F)cc(F)cc4s3)C2)cn1` (stereo not shown) [compound 078], the Emax came out at 86%; the Max efficacy is 81%; the EC50 is 4900 nM and 2100 nM.

For `O=C(Nc1nc2c(F)cc(F)cc2s1)C1CCCN(c2ccccn2)C1` (stereo not shown) [compound 079], the EC50 was greater than 5000 nM.

Consider `O=C(Nc1nc2c(F)cc(F)cc2s1)C1CCCN(c2cccnc2)C1` (stereo not shown) [compound 080], for which the Max efficacy is 135% and 104%; the EC50 was 7400 nM and 2500 nM.

Take `O=C(Nc1nc2c(F)cc(F)cc2s1)C1CCCN(c2ccncc2)C1` (stereo not shown) [compound 081]: the Emax amounted to 87%; the Max efficacy is 87, 87, 87%; the EC50 is 100 nM and 70 nM and 300 nM.

Turning to `CN1CC(N2CCCC(C(=O)Nc3nc4c(F)cc(F)cc4s3)C2)C1` (stereo not shown) [compound 084], the Emax came out at 83%; the Max efficacy is recorded as 67%; the EC50 was 70 nM and 20 nM.

For `O=C(Nc1nc2c(F)cc(F)cc2s1)C1CCCN(C2CNC2)C1` (stereo not shown) [compound 085], the Emax came out at 89%; the Max efficacy is given as 84%; the EC50 was 80 nM and 200 nM.

Turning to `CN1CCC(N2CCCC(C(=O)Nc3nc4c(F)cc(F)cc4s3)C2)C1` (stereo not shown) [compound 090], the Emax worked out at 85%; the Max efficacy is reported as 69%; the EC50 is 160 nM and 70 nM.

For `O=C(Nc1nc2c(F)cc(F)cc2s1)C1CCCN(C2CCNC2)C1` (stereo not shown) [compound 091], the Emax amounted to 72% and the EC50 stood at 1300 nM.

On to `C=CCN1CCC(N2CCCC(C(=O)Nc3nc4c(F)cc(F)cc4s3)C2)C1` (stereo not shown) [compound 092], for which the Emax is 89% and the EC50 is 50 nM.

With `COCCN1CCC(N2CCCC(C(=O)Nc3nc4c(F)cc(F)cc4s3)C2)C1` (stereo not shown) [compound 093], the Emax came to 86% and the EC50 was 90 nM.

With `COC(=O)CN1CCC(N2CCCC(C(=O)Nc3nc4c(F)cc(F)cc4s3)C2)C1` (stereo not shown) [compound 094], the Emax was determined as 93% and the EC50 stood at 1000 nM.

With `O=C(O)CN1CCC(N2CCCC(C(=O)Nc3nc4c(F)cc(F)cc4s3)C2)C1` (stereo not shown) [compound 095], the EC50 was greater than 5000 nM.

In the case of `CN1CCC(N2CCCC(C(=O)Nc3nc4c(F)cc(F)cc4s3)C2)C1=O` (stereo not shown) [compound 097], the Emax stood at 89% and the EC50 is 700 nM.

Regarding `O=C(Nc1nc2c(F)cc(F)cc2s1)C1CCCN(C2CCCC2)C1` (stereo not shown) [compound 099], the Emax turned out to be 91% and the concentration giving a half-maximal response (EC50) came out at 600 nM.

Turning to `CN1CCC(N2CCCC(C(=O)Nc3nc4c(Br)cccc4s3)C2)C1` (stereo not shown) [compound 100], the Emax was found to be 84% and the EC50 came to 250 nM.

Take `O=C(Nc1nc2c(Br)cccc2s1)C1CCCN(C2CCNC2)C1` (stereo not shown) [compound 101]: the Emax came to 84% and the EC50 is 500 nM.

Take `CN1CC(N2CCCC(C(=O)Nc3nc4c(Cl)cc(F)cc4s3)C2)C1` (stereo not shown) [compound 103]: the Emax was 82% and the EC50 was found to be 280 nM.

With `O=C(Nc1nc2c(Cl)cc(F)cc2s1)C1CCCN(c2ccncc2)C1` (stereo not shown) [compound 104], the Emax amounted to 70% and the EC50 came out at 280 nM.

As to `Cc1cc(N2CCCC(C(=O)Nc3nc4c(F)cc(F)cc4s3)C2)ccn1` (stereo not shown) [compound 105], the Emax was 87% and the EC50 is 90 nM.

`O=C(Nc1nc2c(F)cc(F)cc2s1)C1CCCN(c2ccnc(F)c2)C1` (stereo not shown) [compound 106]: the Emax worked out at 101% and the EC50 is 3500 nM.

With `COc1cc(N2CCCC(C(=O)Nc3nc4c(F)cc(F)cc4s3)C2)ccn1` (stereo not shown) [compound 107], the Emax was 101% and the concentration giving a half-maximal response (EC50) was found to be 2100 nM.

In the case of `Nc1cc(N2CCCC(C(=O)Nc3nc4c(F)cc(F)cc4s3)C2)ccn1` (stereo not shown) [compound 108], the Emax stood at 88% and the EC50 worked out at 600 nM.

With `O=C(Nc1nc2c(F)cc(F)cc2s1)C1CCCN(c2ccncn2)C1` (stereo not shown) [compound 109], the Emax was determined as 82%; the Max efficacy stood at 74%; the EC50 was 200 nM and 1080 nM.

For the compound `O=C(Nc1nc2c(F)cc(F)cc2s1)C1CCCN(Cc2ccncc2)C1` (stereo not shown) [compound 110], the Emax came out at 95%; the Max efficacy amounted to 78%; the EC50 was 460 nM and 1100 nM.

For `Cc1cncnc1N1CCCC(C(=O)Nc2nc3c(F)cc(F)cc3s2)C1` (stereo not shown) [compound 111], the Emax was 65% and the EC50 came out at 400 nM.

Turning to `O=C(Nc1nc2c(F)cc(F)cc2s1)C1CCCN(c2ccncc2F)C1` (stereo not shown) [compound 112], the Emax came out at 97%.

With `O=C(Nc1nc2c(F)cc(F)cc2s1)C1CCCN(c2ccncc2Br)C1` (stereo not shown) [compound 113], the EC50 was greater than 5000 nM.

For the compound `O=C(Nc1nc2c(Cl)cc(F)cc2s1)C1CCCN(c2ccnc3ccccc23)C1` (stereo not shown) [compound 114], the EC50 was greater than 5000 nM.

For `O=C(Nc1nc2c(Cl)cc(F)cc2s1)C1CCCN(c2ccnnc2)C1` (stereo not shown) [compound 115], the Emax is 56% and the EC50 is 100 nM.

As to `CC1C(N2CCCC(C(=O)Nc3nc4c(Cl)cc(F)cc4s3)C2)CN1C` (stereo not shown) [compound 130], the Emax was 94% and the EC50 was 120 nM.

On to `CC1NCC1N1CCCC(C(=O)Nc2nc3c(Cl)cc(F)cc3s2)C1` (stereo not shown) [compound 131], for which the Emax was 81% and the EC50 is 130 nM.

As to `CCN1CC(N2CCCC(C(=O)Nc3nc4c(Cl)cc(F)cc4s3)C2)C1` (stereo not shown) [compound 135], the Emax turned out to be 85% and the EC50 was 110 nM.

For the origin of these results see patent publication US20250092030A1, “ENHANCERS OF PARTICULATE GUANYLYL CYCLASE RECEPTOR A” (Mayo Foundation for Medical Education and Research, priority 2023, published 2025).
